Experimental data as given in article PMC5769417, “Single- and Multiple-Dose Trials to Determine the Pharmacokinetics, Safety, Tolerability, and Sex Effect of Oral Ginsenoside Compound K in Healthy Chinese Volunteers” (Frontiers in Pharmacology, 2018).
Where “and” joins values, the source holds several entries; their conditions need not be identical. Identical values can stand only once.

Tests used:
Sprague Dawley (SD) rats = settings: cited from earlier work
[1] = Multiple-dose trial, plasma pharmacokinetics; format: in vivo, human; settings: for Accumulation index: 1/(1 − e^−Kτ)
Experimental: Multiple-dose pharmacokinetics: […] Multiple-dose pharmacokinetics: […] All samples were preserved at −70°C and analyzed with a LC-MS/MS (API 4000 LC-MS/MS, ABI Company, Foster City, CA, USA) at the Institute of Clinical Pharmacology, Central South University (Changsha, China). […] An aqueous solution of a stable internal standard (IS for CK: digoxin, Shijiaoke Biological Technology Co. Ltd., Beijing, China; IS for PPD: coumarin, Sigma-Aldrich, St. Louis, USA) and 1 M phosphate buffer were added to 0.5 ml of thawed sample, and analytical standards and quality control (QC) samples were prepared in the same matrix. All samples were treated with 2 ml of methyl tert-butyl ether (MTBE, CNW technologies GmbH, Duesseldorf, Germany) to precipitate the bulk of plasma proteins. After mechanical shock by mixing for 10 min and a subsequent centrifugation (4,000 rpm, 4°C, 10 min), 1.4 ml of the supernatant was transferred and blow-dried with nitrogen in a water bath at 40°C. Lastly, the residue was dissolved in 100 μl of mobile phase and then was subjected to a mechanical shock by mixing, and centrifuged. The supernatant was subsequently injected into the column for analysis. […] Accuracy and precision of the assay were determined by evaluating the performance of the assay controls. Over the quantification range, the accuracy of the QC samples varied from 85 to 115% and the intra- and inter-assay imprecision was <15%. […] The area under the curve (AUC) from time zero to the last time point (AUClast) and the AUC extrapolated to infinity (AUCinf) were calculated using the linear trapezoidal rule. The slope (elimination rate constant, K) of the terminal phase of the plasma concentration-time profile was determined, using a weighting factor of 1, by the method of least squares (log-linear regression of at least three data points). The t1/2 was estimated as (ln2)/K. […] The apparent volume of distribution (V/F) was equal to (CL/F)/K. The mean residence time (MRT) was calculated as the area under the first moments curve (AUMC) divided by AUC. The dose-normalized PK parameters e.g., Cmax/D and AUClast/D, were obtained by dividing each PK result by the administered dose. The cumulative excretion rate was calculated as the amount of unchanged drug in the urine over a time interval divided by the dose and was expressed as thousand points (‰). On day 15 in the multiple-dose trial, the PK parameters, such as t1/2, CL/F, and V/F at steady state were calculated using the same method as that used for the single-dose trial. In addition, the Tmax at steady state (Tmax,ss), Cmax at steady state (Cmax,ss), and Cmin,ss were obtained from experimental observation after the steady state during the multiple-dose trial. […] The average steady-state drug concentration (Cavg) is calculated as AUCτ/τ, and the fluctuation ratio was calculated as (Cmax,ss − Cmin,ss)/Cavg. The accumulation index was calculated using dosing interval and elimination rate constant as in the following equation: 1/(1 − e^−Kτ).

[2] = 100 mg oral after breakfast, Day 1
[3] = 100 mg qd oral after breakfast, Day 15
[4] = 200 mg oral after breakfast, Day 1
[5] = 200 mg qd oral after breakfast, Day 15
[6] = 400 mg oral after breakfast, Day 1
[7] = 400 mg qd oral after breakfast, Day 15

Compound: CC(C)=CCC[C@](C)(OC1O[C@H](CO)[C@@H](O)[C@H](O)[C@H]1O)[C@H]1CC[C@]2(C)[C@@H]1[C@H](O)C[C@@H]1[C@@]3(C)CC[C@H](O)C(C)(C)[C@@H]3CC[C@]12C (stereo partly drawn) [CK, 20-O-beta-D-glucopyranosyl-20(S)-protopanaxadiol]
- dose at which diarrhea symptom occurred (Sprague Dawley (SD) rats; long-term toxicity test, Sprague Dawley (SD) rats): 150 mg/kg
- No observed adverse effect level (NOAEL) (Sprague Dawley (SD) rats; rats): 25.0 mg/kg
- CL/F [1, 2]: 11.6 ± 3.0 l·h ^−1
- V/F [1, 2]: 402 ± 54 L
- AUMCτ (zero to 24 h) [1, 3]: 60141.5 ± 17696.2 ng·h/mL
- CL/F [1, 3]: 13.4 ± 3.6 l·h ^−1
- Fluctuation [1, 3]: 259.42% and 259.42 ± 48.85%
- V/F [1, 3]: 661 ± 242 L
- Accumulation index ([1]; 100 mg qd): 2.62 and 2.62 ± 0.62
- CL/F [1, 4]: 9.6 ± 3.1 l·h ^−1
- V/F [1, 4]: 326 ± 137 L
- AUMCτ (zero to 24 h) [1, 5]: 179177.1 ± 49122.9 ng·h/mL
- CL/F [1, 5]: 8.6 ± 2.5 l·h ^−1
- Fluctuation [1, 5]: 289.25% and 289.25 ± 35.75%
- V/F [1, 5]: 455 ± 152 L
- Accumulation index ([1]; 200 mg qd): 2.78 and 2.78 ± 0.73
- CL/F [1, 6]: 9.4 ± 2.4 l·h ^−1
- V/F [1, 6]: 358 ± 118 L
- AUMCτ (zero to 24 h) [1, 7]: 306621.5 ± 78711.0 ng·h/mL
- CL/F [1, 7]: 10.3 ± 3.0 l·h ^−1
- Fluctuation [1, 7]: 273.98% and 273.98 ± 37.16%
- V/F [1, 7]: 514 ± 188 L
- Accumulation index ([1]; 400 mg qd): 2.60 and 2.60 ± 0.31
- accumulation index range ([1]; 100–400 mg qd): 2.60–2.78
- AUCinf/D, dose-normalized AUCinf ([1]; Day 1, Female): 116.58 ± 28.07^* h·ng·ml^−1·mg^−1
- AUClast/D, dose-normalized AUClast ([1]; Day 1, Female): 114.23 ± 27.97 ng·h/mL/mg
- Cmax/D, dose-normalized Cmax ([1]; Day 1, Female): 14.49 ± 4.07 ng/mL/mg
- AUCinf/D, dose-normalized AUCinf ([1]; Day 1, Male): 94.22 ± 24.54 ng·h/mL/mg
- AUClast/D, dose-normalized AUClast ([1]; Day 1, Male): 92.27 ± 24.00 ng·h/mL/mg
- Cmax/D, dose-normalized Cmax ([1]; Day 1, Male): 11.00 ± 4.25 ng/mL/mg
- AUCinf/D, dose-normalized AUCinf ([1]; Day 1, all subjects): 105.41 ± 28.29 ng·h/mL/mg
- AUClast/D, dose-normalized AUClast ([1]; Day 1, all subjects): 103.25 ± 27.94 ng·h/mL/mg
- Cmax/D, dose-normalized Cmax ([1]; Day 1, all subjects): 12.74 ± 4.46 ng/mL/mg
- AUCinf/D, GMR (95% CI) ([1]; Day 1, between sexes): 1.25 (1.03–1.51)
- AUClast/D, GMR (95% CI) ([1]; Day 1, between sexes): 1.25 (1.03–1.51)
- Cmax/D, GMR (95% CI) ([1]; Day 1, between sexes): 1.37 (1.04–1.80)
- AUCinf/D, GMR (95% CI) ([1]; Day 1 vs Day 15): 0.75 (0.64–0.87)
- AUClast/D, GMR (95% CI) ([1]; Day 1 vs Day 15): 0.79 (0.67–0.91)
- Cmax/D, GMR (95% CI) ([1]; Day 1 vs Day 15): 1.00 (0.82–1.22)
- AUCinf/D, dose-normalized AUCinf ([1]; Day 15, Female): 153.33 ± 30.98 ng·h/mL/mg
- AUClast/D, dose-normalized AUClast ([1]; Day 15, Female): 143.45 ± 29.33 ng·h/mL/mg
- Cmax/D, dose-normalized Cmax ([1]; Day 15, Female): 14.25 ± 3.38 ng/mL/mg
- AUCinf/D, dose-normalized AUCinf ([1]; Day 15, Male): 132.87 ± 52.60 ng·h/mL/mg
- AUClast/D, dose-normalized AUClast ([1]; Day 15, Male): 123.74 ± 47.85 ng·h/mL/mg
- Cmax/D, dose-normalized Cmax ([1]; Day 15, Male): 11.18 ± 5.19 ng/mL/mg
- AUCinf/D, dose-normalized AUCinf ([1]; Day 15, all subjects): 143.10 ± 43.67 ng·h/mL/mg
- AUClast/D, dose-normalized AUClast ([1]; Day 15, all subjects): 133.59 ± 40.26 ng·h/mL/mg
- Cmax/D, dose-normalized Cmax ([1]; Day 15, all subjects): 12.71 ± 4.58 ng/mL/mg
- AUCinf/D, GMR (95% CI) ([1]; Day 15, between sexes): 1.21 (0.96–1.53)
- AUClast/D, GMR (95% CI) ([1]; Day 15, between sexes): 1.21 (0.96–1.52)
- Cmax/D, GMR (95% CI) ([1]; Day 15, between sexes): 1.36 (1.04–1.76)
- MRT last ([1]; both sexes, human, plasma, 100 mg oral after breakfast, Day 1): 12.2 ± 1.4 h
- AUC ([1]; both sexes, human, plasma, 100 mg qd oral after breakfast, Day 15, read-out: AUCτ (zero to 24 h)): 8000 ± 2320 ng·h/mL
- concentration at 15 day ([1]; both sexes, human, plasma, 100 mg qd oral after breakfast, Day 15, steady state, read-out: Cmin): 333 ± 96.7 ng/mL
- MRT last ([1]; both sexes, human, plasma, 200 mg oral after breakfast, Day 1): 12.6 ± 1.6 h
